According to publication PMC7448270, “Channeling C1 Metabolism toward S-Adenosylmethionine-Dependent Conversion of Estrogens to Androgens in Estrogen-Degrading Bacteria” (mBio, 2020):

Test system: T1, estradiol/estrogen methyltransferase (EMT; EmtABCD)
T1 construct: gene emtA; native, not purified; cell-free extract of estradiol-grown cells; assignment to emtABCD by proteogenomics; with Estrogen methyltransferase component EmtC; Estrogen methyltransferase component EmtD (oxidoreductase-like, putative reductive cofactor regeneration)
Assay: UPLC assay of methylation by cell-free extract, Michaelis-Menten
Assay type: biochemical, Denitratisoma oestradiolicum
Details: SAM methyl donor, Ti(III)-citrate, MgCl2, HEPES/KOH pH 8.0, 30°C, anaerobic; crude soluble extract, enzyme not purified

Structure (SMILES) | Km [µM]
C[C@]12CC[C@@H]3c4ccc(O)cc4CC[C@H]3[C@@H]1CC[C@@H]2O [17β-estradiol] | 35 ± 4
C[C@]12CC[C@@H]3c4ccc(O)cc4CC[C@H]3[C@@H]1CCC2=O [estrone] | 14 ± 3
